Measurements from patent EP4201929A1, “QUINOXALINE THIOREDOXIN REDUCTASE INHIBITORS” (geneXplain GmbH, priority 2021, dated 2023).

How the values were obtained:
Format in all cases: cell-based
TrxRl = target: T1, TrxRl (Homo sapiens, UniProt Q16881); assay: TrxR1 enzymatic activity measurement in cellulo (TXN-dependent insulin reduction assay); conditions: MCF7 breast cancer cells, 5 or 10 µM, 2h after treatment, depending on concentration
T1 construct: endogenous in cells; host or cells: MCF7 (A37, A39); HCT116 (A39)
Method: MCF7 cells were treated with 5 or 10 µM 1d*HCl or DMSO as a control. Cells were collected 2 h and 6 h after treatment, washed twice with PBS, and lysed in 100 µL of lysis buffer (50 mM Tris-HCl, 2mM EDTA, 0.15 M NaCl, 1% Triton X-100, protease inhibitors (Roche), pH 7.5). Cells were scraped, collected and snap frozen. After three freeze-thawing cycles the lysate was spinned down, supernatant collected and protein concentration measured using Pierce bicinchoninic acid assay kit (BCA, from Thermofisher Scientific) according to the manufacturer's protocol. To measure TrxR activity, the end-point TXN-dependent insulin reduction assay was used, essentially as described previously (WC Stafford, et al, Irreversible inhibition of cytosolic thioredoxin reductase 1 as a mechanistic basis for anti-cancer therapy, Sci Transl Med (2018), Feb 14;10(428):eaaf7444. doi: 10.1126/scitranslmed.aaf7444). […] After 0, 15 and 30 min, 10 µL aliquots were taken and combined with 6 M guanidine-HCl and 2.5 mM DTNB in 96-well plates (PerkinElmer), whereupon the absorbance at 412 nm was measured using microplate spectrophotometer (TECAN). Levels of active TrxR were normalised to DMSO control samples from each treatment timepoint.
Having established that 1d*HCl inhibits TrxR1activity in vitro, it was important to confirm that 1d*HCl targets TrxRl in living cells. […]

MCF7 cells = assay: Apoptosis detection by FACS (Annexin V staining); conditions: 2 µM, 24h treatment
Method: Cells were placed on 12-well plate at a density of 30000/cm^2 and treated with compounds. After 24h incubation cells were harvested by trypsinization, fixed with 70% ethanol, treated with RNase A (0.25 mg/ml) and stained with Annexin V according to manufacturer's instructions (Thermo Fisher Scientific). Samples were analyzed on a Becton Dickinson FACScan. Data were analyzed by the CellQuest software, version 3.2.1.
To find out whether the growth suppression by 1d*HCl is due to triggering cell death by apoptosis, we performed the Annexin V-mediated staining of phosphatidylserine, exposed on surface of cells undergoing apoptotic cell death. We detected Annexin V-positive cells using FACS.

IMR32 = assay: Growth suppression, cancer cell line panel (resazurin); conditions: IMR32 neuroblastoma, 48 hours
Method: (§1) Breast, colon, ovarian, cervical, liver and lung carcinoma cell lines were grown in DMEM supplemented with 10% FBS, and antibiotics were cultured at 37 °C and 5% CO2. Osteosarcoma, melanoma, lymphoma, neuroblastoma and leukemia cell lines were cultured in RPMI 1640 with 10% FBS and antibiotics. An oxygen concentration of 0.3% was obtained by flushing a sealed box containing the cells with premixed gas composed of 95% nitrogen (N2) and 5% CO2 (AGA AB, Sweden). To obtain an oxygen concentration of 0.05%, the cells were flushed with the premixed gas continuously throughout the experiment.
(§2) Cells were grown in 96-well plates at a density of 3000 cells per well with or without doxycycline and treated with compounds. After 48 hours of incubation the proliferative cell reagent resazurin (Thermo Fisher Scientific) was added to the cells. The degree of resazurin reduction, which reflects cell viability, was measured by microplate reader by monitoring the absorbance at 570 nm and 600 nm, according to the manufacturer.
(§3) Growth suppression by the soluble compound 1d*HCl in a panel of 27 cancer cell lines. The panel of cancer cell lines, including carcinomas of breast (MDA-MB231, SKBR3, T47D, MCF7; BT549, BT20, MDA-MB468), colon, (SW480, RKO, HT29, HCT116) ovarian (OVCAR3, OVCAR4, OVCAR8), cervical (SW756, C33A), liver (HEPG2) and lung (H23), osteosarcoma (SJSA and U2OS), melanoma (ME180), lymphoma (Raji, HDLM2), neuroblastoma (SKNAS, IMR32) and leukemia (NB4, K562) were treated with increasing concentrations of 1d*HCl: 0.4; 0.8; 1.6; 3.2; 6.4; 12.8; 25.6 µM in 96-well plates. After 48 hours of incubation the proliferative cell reagent resazurin was added to the cells. The degree of resazurin reduction, which reflects cell viability, was measured by microplate reader by monitoring the absorbance at 570 nm and 600 nm, according to the manufacturer, and the IC50 and AUC (area under curve) were determined (Table 2). As could be seen in Table 2, 1d*HCl suppressed the growth of cancer cell lines of a different origin, including carcinomas, osteosarcomas, melanoma, lymphoma, leukemia and neuroblastoma. These findings open up a possibility of the application of the present invention in anti-cancer therapy in a broad range of tumor types. Table 2: a) Breast cancer

SKBR3 = assay: as above; conditions: SKBR3 breast, 48 hours
Method: as §1, §2, §3

ME180 = assay: as above; conditions: ME180 (table section Cervical), 48 hours
Method: as §1, §2, §3

BT20 = assay: as above; conditions: BT20 breast, 48 hours
Method: as §1, §2, §3

SKNAS = assay: as above; conditions: SKNAS neuroblastoma, 48 hours
Method: as §1, §2, §3

T1 sequence (Q16881 151-649): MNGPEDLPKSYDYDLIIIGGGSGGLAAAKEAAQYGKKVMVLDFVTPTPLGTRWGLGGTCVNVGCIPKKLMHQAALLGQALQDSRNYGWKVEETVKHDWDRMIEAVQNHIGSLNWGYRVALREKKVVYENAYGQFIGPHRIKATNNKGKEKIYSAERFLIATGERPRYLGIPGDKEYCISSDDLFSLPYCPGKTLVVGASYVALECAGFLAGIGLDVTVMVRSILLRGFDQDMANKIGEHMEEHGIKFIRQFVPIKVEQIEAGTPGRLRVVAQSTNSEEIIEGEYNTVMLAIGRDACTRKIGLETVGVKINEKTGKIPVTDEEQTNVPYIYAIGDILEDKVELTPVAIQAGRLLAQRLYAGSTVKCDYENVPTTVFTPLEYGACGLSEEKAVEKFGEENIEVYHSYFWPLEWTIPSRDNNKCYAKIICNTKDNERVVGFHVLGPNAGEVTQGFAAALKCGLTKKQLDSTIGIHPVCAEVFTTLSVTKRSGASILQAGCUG

## Cl.N#Cc1c(-c2cccnc2)[n+]([O-])c2cc(F)c(N3CCOCC3)cc2[n+]1[O-] [1d*HCl, 6-Fluoro-7-(morpholin-4-yl)-3-(pyridin-3-yl)quinoxaline-2-carbonitrile-1,4-dioxide hydrochloride]
TrxRl
  inhibition of TrxRl activity in cells: 70-80%
MCF7 cells
  Annexin V-positive cells: induced Annexin V-positive cells statistically significantly
IMR32; Homo sapiens, IMR-32, resazurin, read-out: ICso
  IC50: 5.15 µM
IMR32; area under curve, 0.4-25.6 µM
  AUC: 6,40
SKBR3; Homo sapiens, SK-BR-3, resazurin
  IC50: 2.13 µM
SKBR3; area under curve, 0.4-25.6 µM
  AUC: 3,06
ME180; Homo sapiens, ME-180, resazurin
  IC50: 2.23 µM
ME180; area under curve, 0.4-25.6 µM
  AUC: 2,72
BT20; area under curve, 0.4-25.6 µM
  AUC: 9,64
BT20; Homo sapiens, BT-20, resazurin
  IC50: 5.91 µM
SKNAS; Homo sapiens, SK-N-AS, resazurin, read-out: ICso
  IC50: 4.68 µM
SKNAS; area under curve, 0.4-25.6 µM
  AUC: 7,73
